Measured values: US20150232509A1, “SPIRO RING COMPOUNDS AS HEPATITIS C VIRUS (HCV) INHIBITORS” (SUNSHINE LAKE PHARMA CO., LTD., priority 2012, published 2015)

How the values were obtained:
[1] = tested on: HCV GT1a replicon cells; test: HCV Replicon assay, GT1a replicon cells (Luciferase / NEO qPCR); type: cell-based; conditions: Hepatitis C virus, 72 hours incubation, read-out: EC50 against HCV 1a genotype
Description: (§1) An HCV Replicon assay was utilized in the present invention, and was prepared, developed and validated as described in Science, 1999, 285 (5424), 110-3 and J. Virol., 2003, 77 (5), 3007-19.
(§2) HCV GT1a, GT1b and GT2a replicon cells were used to test the currently described compound series as well as wild-type cells HCV 1b and resistant cells Y93H, L31F, P32L and 1302V. […]
(§3) The GT1a cells and GT1b cells were seeded into 96-well plates (8,000 cells in 125 μL/well) respectively; each compound was diluted to desired concentration using 5-fold serial dilutions protocol, 10 doses in duplicate, and added to wells with POD™ 810 Plate Assembler. The final concentration of DMSO was 0.5%; the plates were incubated in a CO2 incubator for 72 hours; after that, 40 μL of Luciferase assay substrate (Promega Bright-Glo) was added to each well, and detected by a chemiluminescence detection system (Topcount Microplate Scintillation and Luminescence Counter) 5 minutes later; data analysis.
(§4) The GT1a cells and GT1b cells were seeded into 96-well plates (8,000 cells in 125 μL/well) respectively; each compound was diluted to desired concentration using 5-fold serial dilutions protocol, 10 doses in duplicate, and added to wells with POD™ 810 Plate Assembler., the final concentration of DMSO was 0.5%; the cells were incubated in a CO2 incubator for 72 hours; quantitative PCR. • Sample preparation: the supernatant was removed, 100 μL of FCW buffer solution was added to each well, washed carefully and discarded the solution; 50 μL of lysate FCP was added to each well, the cells was lysed as PCR template and PCR template was diluted with DEPC water as sample template. • Quantitative PCR: preparation of reaction mixture according to PCR system; the reaction mixture was dispensed into a 384-well PCR reaction plate (specially for quantitative); and a standard template which was diluted in proportion was distributed into the plate; and the sample template was distributed into the plate; then the 384-well plate was sealed with closure plate membrane; the […] PCR machine was operated by procedures; data analysis. 3. Data Processing: the EC50 Values of Compounds were Analyzed by GraphPad Prism Software.

[2] = tested on: HCV GT1b replicon cells; test: HCV Replicon assay, GT1b replicon cells (Luciferase / NEO qPCR); type: cell-based; conditions: Hepatitis C virus, 72 hours incubation, read-out: EC50 against HCV 1b genotype
Description: as §1, §2, §3, §4

SMILES	EC50 [1] [nM]	EC50 [2] [nM]
COC(=O)N[C@H](C(=O)N1CCC[C@H]1c1ncc(-c2ccc(-c3ccc(-c4ccc5nc([C@@H]6CCCN6C(=O)[C@@H](NC(=O)OC)C(C)C)[nH]c5c4)c4c3CCC43CCCC3)c3cnoc23)[nH]1)C(C)C [Example 46]	0.388	0.118
COC(=O)N[C@H](C(=O)N1CCC[C@H]1c1ncc(-c2ccc(-c3sc(-c4cnc([C@@H]5CCCN5C(=O)[C@@H](NC(=O)OC)C(C)C)[nH]4)c4c3C3(CCCC3)CC4)cc2)[nH]1)C(C)C [Example 47]	3.57	0.687
COC(=O)N[C@H](C(=O)N1CCC[C@H]1c1ncc(-c2ccc(-c3ccc(-c4cnc([C@@H]5CCCN5C(=O)[C@@H](NC(=O)OC)C(C)C)[nH]4)c4c3C3(CC4)CCN(C)C3)cc2)[nH]1)C(C)C (stereo partly shown) [Example 48]	3.08	0.24
COC(=O)N[C@H](C(=O)N1CCC[C@H]1c1ncc(-c2ccc(-c3ccc(-c4cnc([C@@H]5CCCN5C(=O)[C@@H](NC(=O)OC)C(C)C)[nH]4)c4c3C3(CCCN3C)CC4)cc2)[nH]1)C(C)C (stereo partly shown) [Example 49]	23.6	0.357
COC(=O)N[C@H](C(=O)N1CCC[C@H]1c1ncc(-c2ccc(-c3ccc(-c4cnc([C@@H]5CCCN5C(=O)[C@@H](NC(=O)OC)C(C)C)[nH]4)c4c3C3(CCC4)CCN(C)C3)cc2)[nH]1)C(C)C (stereo partly shown) [Example 50]	0.875	0.096
COC(=O)N[C@H](C(=O)N1CCC[C@H]1c1ncc(-c2ccc(-c3ccc(-c4cnc([C@@H]5CCCN5C(=O)[C@@H](NC(=O)OC)C(C)C)[nH]4)c4c3C3(CCCO3)CCC4)cc2)[nH]1)C(C)C (stereo partly shown) [Example 51]	4.57	0.086
COC(=O)N[C@H](C(=O)N1CCC[C@H]1c1ncc(-c2ccc(-c3ccc(-c4cnc([C@@H]5CCCN5C(=O)[C@@H](NC(=O)OC)C(C)C)[nH]4)c4c3C3(CCOC3)CC4)cc2)[nH]1)C(C)C (stereo partly shown) [Example 52]	3.67	0.033
COC(=O)NC(C(=O)N1CCCC1c1nc2cc(-c3ccc(-c4ccc5[nH]c(C6CCCN6C(=O)C(NC(=O)OC)C(C)C)nc5c4)c4c3CCC43CCCC3)ccc2[nH]1)C(C)C (stereo not shown) [Example 53]	0.263	0.074
COC(=O)NC(C(=O)N1CCCC1c1nc(-c2ccc(-c3ccc(-c4c[nH]c(C5CCCN5C(=O)C(NC(=O)OC)C(C)C)n4)c4c3C3(CCCC3)CC4)cc2)c[nH]1)C(C)C (stereo not shown) [Example 54]	3.57	0.044
COC(=O)NC(C(=O)N1CCCC1c1ncc(-c2ccc(-c3ccc(-c4ccc5[nH]c(C6CCCN6C(=O)C(NC(=O)OC)C(C)C)nc5c4)c4c3C3(CCCC3)CC4)cc2)[nH]1)C(C)C (stereo not shown) [Example 55]	0.073	0.028
COC(=O)NC(C(=O)N1CCCC1c1ncc(-c2ccc(-c3ccc(-c4ccc5[nH]c(C6CCCN6C(=O)C(NC(=O)OC)C(C)C)nc5c4)c4c3CCC43CCCC3)cc2)[nH]1)C(C)C (stereo not shown) [Example 56]	0.138	0.036
